Test results reported in the OPERA property sets (Mansouri et al. 2018).

Compound | logP
COc1cc(Cc2cnc(N)nc2N)cc(OC)c1O | 0.37
O=C1CN=C(c2ccccc2F)c2cc(Cl)ccc2N1 | 2.7
CC(C)(C)C1=Nc2ccc(Cl)cc2S(=O)(=O)N1 | 2.4
CCCCCCCC[n+]1ccc(C)c(C)c1.[I-] | -0.41
Cc1cccc(N=NN(C)C)c1 | 2.85
O=NN(CCCl)C(=O)NC1CCS(=O)(=O)CC1 | 0.19
CC(=O)N(c1ccccc1)S(C)(=O)=O | 0.29
COc1ccc(Br)c(Cc2cnc(N)nc2N)c1 | 2
CCOC(=O)C(=Cc1ccc(OC)c(OC)c1)C(C)=O | 2.02
O=C(CNC(=O)c1ccccc1)Oc1ccc(F)cc1 | 2.46
CN1C(C(=O)Nc2nccs2)C(=O)c2ccccc2S1(=O)=O (stereo not given) | 1.64
CC1=Nc2ccc(C(F)(F)F)cc2S(=O)(=O)N1 | 1.51
COc1cc(-n2c(C)cc(=O)n2C)nc(C)n1 | 0.38
Cc1ccccc1C(=N)c1ccccc1 | 3.21
O=NN1CCC(c2ccccc2)CC1 | 2.59
CNC(=O)Oc1cccc(C(F)(F)F)c1 | 2.37
O=C(O)COc1cccc(S(F)(F)(F)(F)F)c1 | 2.78
CC1CCN(N=O)CC1 | 1.05
COc1c(C)cc(Cc2cnc(N)nc2N)cc1C | 2.19
CN1C(=O)CN=C(c2ccccc2)c2cc(N)ccc21 | 1.46
CC(=O)C(C#N)=NNc1ccc(Cl)c(Cl)c1 | 4.56
CSC(C)=NOC(=O)N(C)SN(C)C(=O)c1cccc(Cl)c1 | 2.7
CC(C)(C)c1cccc(OC2OC(CO)C(O)C(O)C2O)c1 (stereo not given) | 1.01
CC1NCCN1CCO (stereo not given) | -1.93
CCCC1=Nc2cc(Cl)ccc2S(=O)(=O)N1 | 2.04

Compound | logP
CN1CCN(C)C1=Nc1ncc([N+](=O)[O-])s1 | 0.95
COc1cc(Cc2cnc(N)nc2N)cc(OC)c1C | 2.14
O=NN(CCCl)C(=O)NC12CC3CC(CC(C3)C1)C2 | 3.56
O=C1CN=C(c2ccc(Cl)cc2)c2cc(Br)ccc2N1 | 3.78
N=C(N)NC(=O)Nc1ccc(Cl)c(Cl)c1 | 2.39
ClC1C(Cl)C(Br)C(Cl)C(Br)C1Cl (stereo not given) | 3.98
[N-]=[N+]=CC(=O)NCC(=O)NCCO | -1.35
COC(=O)C(C#N)=NNc1cc(Cl)c(Cl)cc1Cl | 5.15
CNC1CC2OC1c1ccccc12 (stereo not given) | 0.91
Fc1cccc(Cl)c1N=C1NCCN1 | 1.45
CCCCCOn1c(=O)[nH]c(C)c(Br)c1=O | 1.69
COc1cc(Cc2cnc(N)nc2N)cc(O)c1O | -0.31
CN(C)C(=O)COc1ccccc1 | 0.8
CN(C)C(=O)Nc1cccc(O)c1 | 0.51
O=C(CN1CCCCC1)Nc1ccccc1Cl | 2.76
CC(C)OCC(O)Cn1ccnc1[N+](=O)[O-] (stereo not given) | 0.51
CCOC(=O)C(C#N)=NNc1cc(Cl)c(Cl)cc1Cl | 5.21
Nc1cccc(OC(=O)CNC(=O)c2ccccc2)c1 | 1.3
OCC1OC(Oc2ccc(I)c(OC3OC(CO)C(O)C(O)C3O)c2I)C(O)C(O)C1O (stereo not given) | -1.31
CC(=O)Nc1c(C)c(C)c(O)c(C)c1C | 0.95
CCCCCCN(SN(C)C(=O)ON=C(C)SC)C(=O)N(C)C | 3.3
CCCCN(SN(C)C(=O)Oc1cccc2c1OC(C)(C)C2)C(=O)OC | 4.6
CCC(=O)N(C)SN(C)C(=O)Oc1cccc2c1OC(C)(C)C2 | 3.2
COC1=C(C)C(=O)c2ccccc2C1=O | 2.14
CC(=O)N(CCO)c1c(I)c(C(=O)NCC(O)CO)c(I)c(C(=O)NCC(O)CO)c1I (stereo not given) | -2.47

Compound | logP
CC(=O)N=C1SC(=Cc2ccc([N+](=O)[O-])o2)C(=O)N1C | 1.21
NC(=O)CCCn1nnc2ccccc21 | 0.37
C=C(C)C(=O)OC(C)C | 2.25
COc1cc(OC)c(N=C2NCCN2)cc1Cl | 1.38
CCC(C)c1ccccc1OC(=O)N(C)C (stereo not given) | 3.31
CCC(C)NC(=O)C=C(C)c1ccc(Cl)cc1 (stereo not given) | 3.92
CSC(C)=NOC(=O)N(C)SN(C)C(=O)c1cccc(C(F)(F)F)c1 | 2.5
CN(C)C(=O)Oc1ccc([N+](=O)[O-])cc1 | 1.5
O=C(O)COc1ccc(C2CCCC2)cc1 | 3.41
O=C1CCC(=O)N1c1ccc(F)cc1 | 0.29
O=[N+]([O-])c1nccn1CCOc1ccccc1 | 1.89
COc1cc(-n2nc(C)cc2OC)ncn1 | 1.53
ClC1C(Cl)C(Cl)C(I)C(Cl)C1Cl (stereo not given) | 4.05
CN(C)CC(=O)NCc1ccccc1 | 1.11
CNC(=S)NCCSCc1nc[nH]c1C | 0.5
CC(C)CNCC(=O)NC(=O)C=[N+]=[N-] | 0.37
CNC(=O)NN | -2.2
Nc1nc(-c2ccccc2)c2ccccc2n1 | 2.95
O=C(NCC(O)CO)Nc1ccccc1 (stereo not given) | 0.28
CC(=O)Cn1ccnc1[N+](=O)[O-] | -0.34
CNC(=O)Oc1ccccc1SC | 1.51
CCCC(CO)n1cnc2c(N)ncnc21 (stereo not given) | 0.66
CC(=O)Nc1cc(C)c(O)c(C)c1C | 0.82
CC(=O)Nc1cccc(OC(C)=O)c1 | 1.03
O=C(NC(CO)C(O)c1ccc([N+](=O)[O-])cc1)c1ccccc1 (stereo not given) | 1.63
